Laboratory results: US9062071B2, “Substituted piperidines as HDM2 inhibitors” (Merck Sharp & Dohme Corp, priority 2011, dated 2015)

Target: HDM2 protein (Homo sapiens, UniProt Q00987)
Assay: fluorescence polarization screening assay (FP IC50)
Type: binding
Conditions: class symbols
Method: The compounds were evaluated to determine activity at the HDM2 protein by known methods such as the fluorescence polarization screening assay that measures the inhibitory concentration that achieves 50% of maximal activity (FP IC50) and the dissociation constant for inhibitor binding (FP Ki). [Zhang et al., J. Analytical Biochemistry 331: 138-146 (2004)].

HDM2 protein, sequence (Q00987 whole entry): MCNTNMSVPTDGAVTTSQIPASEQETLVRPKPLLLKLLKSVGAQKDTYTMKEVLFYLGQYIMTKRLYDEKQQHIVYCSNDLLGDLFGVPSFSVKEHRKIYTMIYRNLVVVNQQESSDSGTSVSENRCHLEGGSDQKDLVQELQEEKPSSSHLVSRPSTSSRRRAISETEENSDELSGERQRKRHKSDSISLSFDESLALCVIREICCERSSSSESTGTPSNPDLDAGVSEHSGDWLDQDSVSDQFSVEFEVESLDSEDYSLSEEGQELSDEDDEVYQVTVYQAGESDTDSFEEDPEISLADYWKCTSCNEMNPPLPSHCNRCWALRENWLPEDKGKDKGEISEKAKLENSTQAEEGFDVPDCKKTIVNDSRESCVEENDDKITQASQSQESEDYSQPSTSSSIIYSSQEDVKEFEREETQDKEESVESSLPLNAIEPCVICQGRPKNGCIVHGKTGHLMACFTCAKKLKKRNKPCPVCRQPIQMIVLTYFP

| Compound | IC50 [nM] |
| --- | --- |
| CCC[C@H]1N(C(=O)c2ncccc2C(F)(F)F)CCC[C@@]1(Oc1csc(C(F)(F)F)c1)C(=O)N1CCc2cc(Cl)ccc2C1C#N (stereo partly drawn) [Compound A76, 6-chloro-2-{[(2R,3S)-2-propyl-1-{[3-(trifluoromethyl)pyridin-2-yl]carbonyl}-3-{[5-(trifluoromethyl)thiophen-3-yl]oxy}piperidin-3-yl]carbonyl}-1,2,3,4-tetrahydroisoquinoline-1-carbonitrile] | 101 to 20000 |
| CCC[C@H]1N(C(=O)c2ncccc2C(F)(F)F)CCC[C@@]1(Oc1csc(C(F)(F)F)c1)C(=O)N1Cc2ccc(Cl)cc2C[C@@H]1CCC(=O)NO [Compound A145, 3-[(3S)-6-chloro-2-{[(2R,3S)-2-propyl-1-{[3-(trifluoromethyl)pyridin-2-yl]carbonyl}-3-{[5-(trifluoromethyl)thiophen-3-yl]oxy}piperidin-3-yl]carbonyl}-1,2,3,4-tetrahydroisoquinolin-3-yl]-N-hydroxypropanamide] | 1 to 100 |
| CCC[C@H]1N(C(=O)c2ncccc2C(F)(F)F)CCC[C@@]1(Oc1csc(C(F)(F)F)c1)C(=O)N1CCc2cc(Cl)ccc2[C@@H]1CCC(=O)N1CCC(C(=O)O)CC1 [Compound A99, 1-{3-[(1S)-6-chloro-2-{[(2R,3S)-2-propyl-1-{[3-(trifluoromethyl)pyridin-2-yl]carbonyl}-3-{[5-(trifluoromethyl)thiophen-3-yl]oxy}piperidin-3-yl]carbonyl}-1,2,3,4-tetrahydroisoquinolin-1-yl]propanoyl}piperidine-4-carboxylic acid] | 1 to 100 |
| CCC[C@H]1N(C(=O)c2ncccc2C(F)(F)F)CCC[C@@]1(Oc1csc(C(F)(F)F)c1)C(=O)N1Cc2ccc(F)cc2C[C@@H]1CCN(C)C(=O)[C@@H](C)O [Compound A163, (2R)-N-{2-[(3R)-6-fluoro-2-{[(2R,3S)-2-propyl-1-{[3-(trifluoromethyl)pyridin-2-yl]carbonyl}-3-{[5-(trifluoromethyl)thiophen-3-yl]oxy}piperidin-3-yl]carbonyl}-1,2,3,4-tetrahydroisoquinolin-3-yl]ethyl}-2-hydroxy-N-methylpropanamide] | 1 to 100 |
| CCC[C@H]1N(C(=O)c2ncccc2C(F)(F)F)CCC[C@@]1(Oc1csc(C(F)(F)F)c1)C(=O)N1Cc2ccc(F)cc2C[C@H]1CN(C)C(=O)C(F)F [Compound A159, 2,2-difluoro-N-{[(3S)-6-fluoro-2-{[(2R,3S)-2-propyl-1-{[3-(trifluoromethyl)pyridin-2-yl]carbonyl}-3-{[5-(trifluoromethyl)thiophen-3-yl]oxy}piperidin-3-yl]carbonyl}-1,2,3,4-tetrahydroisoquinolin-3-yl]methyl}-N-methylacetamide] | 101 to 20000 |
| CCC[C@H]1N(C(=O)c2ncccc2C(F)(F)F)CCC[C@@]1(Oc1csc(C(F)(F)F)c1)C(=O)N1CCc2ccsc2C1CC(C)(C)C(=O)OCC (stereo partly drawn) [Compound A28, ethyl 2,2-dimethyl-3-(6-{[(2R,3S)-2-propyl-1-{[3-(trifluoromethyl)pyridin-2-yl]carbonyl}-3-{[5-(trifluoromethyl)thiophen-3-yl]oxy}piperidin-3-yl]carbonyl}-4,5,6,7-tetrahydrothieno[2,3-c]pyridin-7-yl)propanoate] | 101 to 20000 |
| CCC[C@H]1N(C(=O)c2ncccc2C(F)(F)F)CCC[C@@]1(Oc1csc(C(F)(F)F)c1)C(=O)N1CCc2cc(F)ccc2C1CCC(=O)O (stereo partly drawn) [Compound A44, 3-(6-fluoro-2-{[(2R,3S)-2-propyl-1-{[3-(trifluoromethyl)pyridin-2-yl]carbonyl}-3-{[5-(trifluoromethyl)thiophen-3-yl]oxy}piperidin-3-yl]carbonyl}-1,2,3,4-tetrahydroisoquinolin-1-yl)propanoic acid] | 1 to 100 |
| CCC[C@H]1N(C(=O)c2ncccc2C(F)(F)F)CCC[C@@]1(Oc1csc(C(F)(F)F)c1)C(=O)N1CCc2cc(C(N)=O)ccc2C1 [Compound A89, 2-{[(2R,3S)-2-propyl-1-{[3-(trifluoromethyl)pyridin-2-yl]carbonyl}-3-{[5-(trifluoromethyl)thiophen-3-yl]oxy}piperidin-3-yl]carbonyl}-1,2,3,4-tetrahydroisoquinoline-6-carboxamide] | 101 to 20000 |
| CCC[C@H]1N(C(=O)c2ncccc2C(F)(F)F)CCC[C@@]1(Oc1csc(C(F)(F)F)c1)C(=O)N1Cc2sc(Br)cc2C[C@H]1C(=O)NS(C)(=O)=O [Compound A175, (5S)-2-bromo-N-(methylsulfonyl)-6-{[(2R,3S)-2-propyl-1-{[3-(trifluoromethyl)pyridin-2-yl]carbonyl}-3-{[5-(trifluoromethyl)thiophen-3-yl]oxy}piperidin-3-yl]carbonyl}-4,5,6,7-tetrahydrothieno[2,3-c]pyridine-5-carboxamide] | 1 to 100 |
| CCC[C@H]1N(C(=O)c2ncccc2C(F)(F)F)CCC[C@@]1(Oc1csc(C(F)(F)F)c1)C(=O)N1CCc2cc(Br)ccc2C1CCC(=O)O (stereo partly drawn) [Compound A57, 3-(6-bromo-2-{[(2R,3S)-2-propyl-1-{[3-(trifluoromethyl)pyridin-2-yl]carbonyl}-3-{[5-(trifluoromethyl)thiophen-3-yl]oxy}piperidin-3-yl]carbonyl}-1,2,3,4-tetrahydroisoquinolin-1-yl)propanoic acid] | 1 to 100 |
| CCC[C@H]1N(C(=O)c2ncccc2C(F)(F)F)CCC[C@@]1(Oc1csc(C(F)(F)F)c1)C(=O)N1CCc2cc(F)ccc2C1CCC(=O)O (stereo partly drawn) [Compound A42, 3-(6-fluoro-2-{[(2R,3S)-2-propyl-1-{[3-(trifluoromethyl)pyridin-2-yl]carbonyl}-3-{[5-(trifluoromethyl)thiophen-3-yl]oxy}piperidin-3-yl]carbonyl}-1,2,3,4-tetrahydroisoquinolin-1-yl)propanoic acid] | 1 to 100 |
| CCC[C@H]1N(C(=O)c2ncccc2C(F)(F)F)CCC[C@@]1(Oc1csc(C(F)(F)F)c1)C(=O)N1CCc2sc(Cl)cc2C1CCC(=O)O (stereo partly drawn) [Compound A23, 3-(2-chloro-5-{[(2R,3S)-2-propyl-1-{[3-(trifluoromethyl)pyridin-2-yl]carbonyl}-3-{[5-(trifluoromethyl)thiophen-3-yl]oxy}piperidin-3-yl]carbonyl}-4,5,6,7-tetrahydrothieno[3,2-c]pyridin-4-yl)propanoic acid] | 1 to 100 |
| CCC[C@H]1N(C(=O)c2ncccc2C(F)(F)F)CCC[C@@]1(Oc1csc(C(F)(F)F)c1)C(=O)N1CCc2cc(F)ccc2C1CC(=O)O (stereo partly drawn) [Compound A56, (6-fluoro-2-{[(2R,3S)-2-propyl-1-{[3-(trifluoromethyl)pyridin-2-yl]carbonyl}-3-{[5-(trifluoromethyl)thiophen-3-yl]oxy}piperidin-3-yl]carbonyl}-1,2,3,4-. tetrahydroisoquinolin-1-yl)acetic acid] | 1 to 100 |

Further lines, results first:

| IC50 [nM] | Compound |
| --- | --- |
| 1 to 100 | CCC[C@H]1N(C(=O)c2ncccc2C(F)(F)F)CCC[C@@]1(Oc1csc(C(F)(F)F)c1)C(=O)N1Cc2ccc(Cl)cc2C[C@@H]1C[C@H](CC)C(=O)O [Compound A165, (2S)-2-{[(3S)-6-chloro-2-{[(2R,3S)-2-propyl-1-{[3-(trifluoromethyl)pyridin-2-yl]carbonyl}-3-{[5-(trifluoromethyl)thiophen-3-yl]oxy}piperidin-3-yl]carbonyl}-1,2,3,4-tetrahydroisoquinolin-3-yl]methyl}butanoic acid] |
| 1 to 100 | CCC[C@H]1N(C(=O)c2ncccc2C(F)(F)F)CCC[C@@]1(Oc1csc(C(F)(F)F)c1)C(=O)N1CCc2sc(Cl)cc2C1CC(C)(C)C(=O)O (stereo partly drawn) [Compound A25, 3-(2-chloro-5-{[(2R,3S)-2-propyl-1-{[3-(trifluoromethyl)pyridin-2-yl]carbonyl}-3-{[5-(trifluoromethyl)thiophen-3-yl]oxy}piperidin-3-yl]carbonyl}-4,5,6,7-tetrahydrothieno[3,2-c]pyridin-4-yl)-2,2-dimethylpropanoic acid] |
| 1 to 100 | CCC[C@H]1N(C(=O)c2ncccc2C(F)(F)F)CCC[C@@]1(Oc1csc(C(F)(F)F)c1)C(=O)N1Cc2ccc(Cl)cc2C[C@@H]1C(=O)NC1CCOCC1 [Compound A166, (3R)-6-chloro-2-{[(2R,3S)-2-propyl-1-{[3-(trifluoromethyl)pyridin-2-yl]carbonyl}-3-{[5-(trifluoromethyl)thiophen-3-yl]oxy}piperidin-3-yl]carbonyl}-N-(tetrahydro-2H-pyran-4-yl)-1,2,3,4-tetrahydroisoquinoline-3-carboxamide] |
| 101 to 20000 | CCC[C@H]1N(C(=O)c2ncccc2C(F)(F)F)CCC[C@@]1(Oc1csc(C(F)(F)F)c1)C(=O)N1CCc2cc(F)ccc2C1CCCO (stereo partly drawn) [Compound A54, 3-(6-fludro-2-{[(2R,3S)-2-propyl-1-{[3-(trifluoromethyl)pyridin-2-yl]carbonyl}-3-{[5-(trifluoromethyl)thiophen-3-yl]oxy}piperidin-3-yl]carbonyl}-1,2,3,4-tetrahydroisoquinolin-1-yl)propan-1-ol] |
| 1 to 100 | CCC[C@H]1N(C(=O)c2ncccc2C(F)(F)F)CCC[C@@]1(Oc1csc(C(F)(F)F)c1)C(=O)N1CCc2cc(Cl)ccc2C1CCC(=O)NS(C)(=O)=O (stereo partly drawn) [Compound A63, 3-(6-chloro-2-{[(2R,3S)-2-propyl-1-{[3-(trifluoromethyl)pyridin-2-yl]carbonyl}-3-{[5-(trifluoromethyl)thiophen-3-yl]oxy}piperidin-3-yl]carbonyl}-1,2,3,4-tetrahydroisoquinolin-1-yl)-N-(methylsulfonyl) propanamide] |
| 1 to 100 | CCC[C@H]1N(C(=O)c2ncccc2C(F)(F)F)CCC[C@@]1(Oc1csc(C(F)(F)F)c1)C(=O)N1CCc2cc(F)ccc2C1C(=O)O (stereo partly drawn) [Compound A104, 6-fluoro-2-{[(2R,3S)-2-propyl-1-{[3-(trifluoromethyl)pyridin-2-yl]carbonyl}-3-{[5-(trifluoromethyl)thiophen-3-yl]oxy}piperidin-3-yl]carbonyl}-1,2,3,4-tetrahydroisoquinoline-1-carboxylic acid] |
